Data: patent US20200268728A1, “DRUG TARGETING CANCER STEM CELL” (Sumitomo Dainippon Pharma Co., Ltd., priority 2016, published 2020)

What was measured:
Assay in all cases: Sphere-forming ability of cultured cancer cell lines (Test Example 10)
Format in all cases: cell-based
[1] = test system: COLO 205; settings: Homo sapiens, 96 h; COLO 205 colon cancer cell line, 4 days
Description: (§1) The colon cancer cell lines SW480, DLD1, HCT15, HT29, SW948, LS174T, LS411N, SW620, LoVo, HCT116, Colo205, and Hs698T, the pancreatic cancer cell lines MiaPaca2, HPAFII, Capan2, and Panc1, the head and neck cancer cell line FaDu, the breast cancer cell lines HCC1954 and T47D, the bladder cancer cell line SW780, the liver cancer cell line HepG2, the neuroblastoma cell lines U87MG and U251, the lung cancer cell lines H460, H1437, and A549, the prostate cancer cell lines DU145 and PC3, the soft tissue tumor cell line HT1080, the testicular cancer cell line NTERA2, and the ovarian cancer cell line SKOV3 was suspended in the sphere formation medium (DMEM-F12 medium of Test Example 3 was used), and seeded in a 384-well plate with Ultra-Low Attachment surface (Corning) in an amount of 5×10^3-10×10^3 cells/well. The compound of Example 24 was then added into each well to adjust the final concentration to 10-10000 nmol/L. The plate was cultured at 37° C. and 5% carbon dioxide in an incubator for 4 days. After the culture, CellTiterGlo (Promega) was added into all of the wells, and the plate was allowed to stand at room temperature for 10 minutes to measure the intensity of luminescence of each well. The concentrations of each test compound for 50% inhibition of cell proliferation to the cell lines (Sphere IC50 value; μmol/L) was calculated from the measured intensity of luminescence. When each gene mutation in Table is reported, the mutation is represented by “+” (gene mutation information is cited from the ATCC website (https://www.atcc.org/en/Products/Cells_and_Microorganisms/Cell_Lines/Cell_lines_by_genetic_mutation.aspx), Cancer Cell Line Encyclopedia (https://portals.broadinstitute.org/ccle_legacy/home), Proc. Natl. Acad. Sci. USA 94 (1997) 10330-10334).

[2] = test system: Capan-2; settings: Homo sapiens, 96 h; Capan-2 pancreatic cancer cell line, 4 days
Description: as §1

[3] = test system: DLD-1; settings: Homo sapiens, 96 h; DLD-1 colon cancer cell line, 4 days
Description: as §1

[4] = test system: DU 145; settings: Homo sapiens, 96 h; DU 145 prostate cancer cell line, 4 days
Description: as §1

[5] = test system: FaDu; settings: Homo sapiens, 96 h; FaDu head and neck cancer cell line, 4 days
Description: as §1

[6] = test system: HCC1954; settings: Homo sapiens, 96 h; HCC1954 breast cancer cell line, 4 days
Description: as §1

[7] = test system: HCT 116; settings: Homo sapiens, 96 h; HCT 116 colon cancer cell line, 4 days
Description: as §1

[8] = test system: HCT-15; settings: Homo sapiens, 96 h; HCT-15 colon cancer cell line, 4 days
Description: as §1

[9] = test system: HT-1080; settings: Homo sapiens, 96 h; HT-1080 soft tissue tumor cell line, 4 days
Description: as §1

[10] = test system: HT-29; settings: Homo sapiens, 96 h; HT-29 colon cancer cell line, 4 days
Description: as §1

[11] = test system: Hep G2; settings: Homo sapiens, HepG2, 96 h; Hep G2 liver cancer cell line, 4 days
Description: as §1

[12] = test system: Hs 698.T; settings: 96 h; Hs 698.T colon cancer cell line, 4 days
Description: as §1

[13] = test system: LS 174T; settings: Homo sapiens, LS174T, 96 h; LS 174T colon cancer cell line, 4 days
Description: as §1

[14] = test system: LS411N; settings: Homo sapiens, LS-411N, 96 h; LS411N colon cancer cell line, 4 days
Description: as §1

[15] = test system: LoVo; settings: Homo sapiens, 96 h; LoVo colon cancer cell line, 4 days
Description: as §1

[16] = test system: NCI-H1437; settings: Homo sapiens, 96 h; NCI-H1437 lung cancer cell line, 4 days
Description: as §1

[17] = test system: NCI-H460; settings: Homo sapiens, 96 h; NCI-H460 lung cancer cell line, 4 days
Description: as §1

[18] = test system: NTERA-2; settings: NTERA2, 96 h; NTERA-2 testicular cancer cell line, 4 days
Description: as §1

[19] = test system: PC-3; settings: Homo sapiens, 96 h; PC-3 prostate cancer cell line, 4 days
Description: as §1

[20] = test system: Panc-1; settings: Homo sapiens, 96 h; Panc-1 pancreatic cancer cell line, 4 days
Description: as §1

[21] = test system: SK-OV-3; settings: Homo sapiens, 96 h; SK-OV-3 ovarian cancer cell line, 4 days
Description: as §1

[22] = test system: SW 780; settings: Homo sapiens, SW780, 96 h; SW 780 bladder cancer cell line, 4 days
Description: as §1

[23] = test system: SW480; settings: Homo sapiens, 96 h; SW480 colon cancer cell line, 4 days
Description: as §1

[24] = test system: SW620; settings: Homo sapiens, SW-620, 96 h; SW620 colon cancer cell line, 4 days
Description: as §1

[25] = test system: SW948; settings: Homo sapiens, 96 h; SW948 colon cancer cell line, 4 days
Description: as §1

[26] = test system: T-47D; settings: Homo sapiens, T47D, 96 h; T-47D breast cancer cell line, 4 days
Description: as §1

[27] = test system: U-87 MG; settings: Homo sapiens, 96 h; U-87 MG glioblastoma cell line, 4 days
Description: as §1

Structure (SMILES): O=C(Nc1cn(Cc2cc(F)c(F)c(F)c2)cn1)c1cnc(CO)c(C(F)F)c1 [Example 24, 5-(difluoromethyl)-6-(hydroxymethyl)-N-[1-(3,4,5-trifluorobenzyl)-1H-imidazol-4-yl]nicotinamide]
- IC50 [1]: 142 nM
- IC50 [2]: > 10000 nM
- IC50 [3]: 7 nM
- IC50 [4]: > 10000 nM
- IC50 [5]: 9 nM
- IC50 [6]: 23 nM
- IC50 [7]: 91 nM
- IC50 [8]: 8 nM
- IC50 [9]: > 10000 nM
- IC50 [10]: 9 nM
- IC50 [11]: 72 nM
- IC50 [12]: > 10000 nM
- IC50 [13]: 15 nM
- IC50 [14]: 19 nM
- IC50 [15]: 28 nM
- IC50 [16]: 3880 nM
- IC50 [17]: 883 nM
- IC50 [18]: > 10000 nM
- IC50 [19]: > 10000 nM
- IC50 [20]: > 10000 nM
- IC50 [21]: > 10000 nM
- IC50 [22]: 56 nM
- IC50 [23]: 4 nM
- IC50 [24]: 27 nM
- IC50 [25]: 9 nM
- IC50 [26]: 46 nM
- IC50 [27]: 89 nM
